Test results reported in ChEMBL document CHEMBL1154115, “NO-glibenclamide derivatives: prototypes of a new class of nitric oxide-releasing anti-diabetic drugs” (Bioorg Med Chem, 2009).
Calls of active or inactive are those of the source. The rule behind the calls is not given here.

Assays:
Platelet = assay: Inhibition of ADP-induced platelet aggregation in human platelet-rich plasma at 100 uM treated 2 mins before ADP challenge by turbidimetric method; type: functional; parameters: scale not given: the % may be the effect or the level left
Rattus norvegicus = assay: Hypoglycemic activity in streptozotocin-induced diabetic Wistar rat assessed as reduction in blood glucose AUC level at 10 mg/kg, ip measured for 2 hrs (Rvb= 45318 mg/dl/2 h); type: functional, organism-based; parameters: dose 10 mg/kg
[1] = Induction of 20 mM glucose-stimulated insulin secretion in human pancreatic islet cells assessed as insulin stimulation index at 10 uM by immunoradiometric assay; type: functional
[2] = Induction of 20 mM glucose-stimulated insulin secretion in human pancreatic islet cells assessed as insulin stimulation index at 100 uM by immunoradiometric assay; type: functional
Liver = assay: Induction of NO release in Wistar rat liver homogenate at 200 uM by amperometric detection method; type: functional, tissue-based
Aorta = assay: Vasorelaxant activity in endothelium-denuded Wistar rat thoracic aortic ring assessed as inhibition of KCl-induced contraction; type: functional, tissue-based

Row | SMILES | Activity (Platelet) [%] | AUC (Rattus norvegicus) [mg·min/dL] | Activity [1] | Activity [2] | Activity (Liver) | Emax (Aorta) [%] | IC50 (Aorta) [nM]
1 | COc1ccc(Cl)cc1C(=O)NCCc1ccc(S(=O)(=O)NC(=O)NC2CCCCC2)cc1 [GLYBURIDE] | 67 | 33100 | 4.3 | 5.2 | inactive | – | –
2 | COc1ccc(Cl)cc1C(=O)NCCc1ccc(S(=O)(=O)NC(=O)N[C@H]2CC[C@H](O)CC2)cc1 [4-TRANS-HYDROXY-GLYBENCLAMIDE] | 76 | 34500 | 6 | 8.2 | inactive | – | –
3 | O=[N+]([O-])OCC(CO[N+](=O)[O-])O[N+](=O)[O-] [NITROGLYCERIN] | 28 | – | – | – | 600 nM | 98 | 58.9
